Test results taken from patent US11439586B2, “Intratumour injection formulation” (US Nano Food & Drug INC, priority 2018, dated 2022).
In brackets after ≈: the same amount, converted by molar mass. Read-outs that look alike come from different tables or passages of the source. One block for each molecule: values may come before it.

Experiments:
[1] = Kinematic viscosity measurement of solvents; assay type: physicochemical; conditions: 25 ° C.
physchem = conditions: dehydrated ethanol, 25 °C, organic solvent or mixture
[2] = Solubility of antineoplastic drugs in biocompatible pharmaceutical solvents
[3] = cited from earlier work
[4] = tested on: subcutaneous transplantation of tumors; conditions: for Survival of group after drug administration (mice alive): 11 mice at day 0;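 as to all read-outs here: nude mice carrying subcutaneous right axillary tumor cell grafts, tumor volume computed as ab^2/2, negative control given blank solvent intratumorally, animals checked daily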
Procedure: After three generations of resuscitation, cells in logarithmic growth phase were digested and suspended in complete medium. The number of cells was calculated, with the number of cells expected to be over 3×10^7/ml. The right axillary part of nude mice was disinfected by alcohol. The cell suspension was injected subcutaneously with a dose of 0.15 ml. After injection, a round translucent liquid bubble bulged up. The state of the nude mice and the growth of tumors were observed every day after injection. […] The successful nude mice were randomly divided into four groups: 11 in the positive control group, 11 in the high dose group, 11 in the low dose group and 12 in the negative control group. After grouping, intravenous injection was administered in the positive control group, with the other groups administered different tested product or blank solvent by intratumoral injection.
The longest diameter a (mm) and the shortest diameter b (mm) of tumors were measured by electronic Vernier caliper. The tumor volume of nude mice was calculated by formula: TV=ab^2/2, and the relative tumor volume (RTV) was acquired as RTV=V t/Vo. Vo was the volume of tumors before injection and V t was used to measure the volume of tumors some days after first injection. […] The mice were killed 21 days after injection for ethical reasons.

[5] = Medium Chain Triglycerides, 25 °C, oil or lipid
[6] = N-N dimethylacetylamide, 25 °C, organic solvent or mixture
[7] = PEG-400, 25 °C, organic solvent or mixture
[8] = PEG-400, 110 °C, organic solvent or mixture
[9] = Tween-80, 25 °C, organic solvent or mixture
[10] = glycerin, 25 °C, organic solvent or mixture
[11] = soybean oil, 25 °C, oil or lipid
[12] = PEG-300, 25 °C, organic solvent or mixture

Compound: CCO [Dehydrated ethanol]
- Kinematic viscosity measurement [1]: 1.41 mm^2/s

Compound: CC(=O)O[C@H]1C(=O)[C@@]2(C)[C@H]([C@H](OC(=O)c3ccccc3)[C@]3(O)C[C@H](OC(=O)[C@H](O)[C@@H](NC(=O)c4ccccc4)c4ccccc4)C(C)=C1C3(C)C)[C@]1(OC(C)=O)CO[C@@H]1C[C@@H]2O [Paclitaxel]
- solubility (physchem): > 6000 µg/mL
- intravenous LD50 ([3]; mice): 12 mg/kg
- solubility [2, 5]: < 6000 µg/mL
- solubility ([2]; Medium Chain Triglycerides, 120 °C, oil or lipid): > 6000 µg/mL
- solubility [2, 6]: > 50000 µg/mL
- solubility [2, 7]: < 40000 µg/mL
- solubility [2, 8]: > 40000 µg/mL
- solubility [2, 9]: < 6000 µg/mL
- solubility ([2]; Tween-80, 110 °C, organic solvent or mixture): > 6000 µg/mL
- solubility [2, 10]: < 1000 µg/mL
- solubility [2, 11]: < 6000 µg/mL
- solubility ([2]; soybean oil, 145 °C, oil or lipid): > 6000 µg/mL

Compound: COc1cc([C@@H]2c3cc4c(cc3[C@@H](O[C@@H]3O[C@@H]5CO[C@@H](C)O[C@H]5[C@H](O)[C@H]3O)[C@H]3COC(=O)[C@H]23)OCO4)cc(OC)c1O [etoposide]
- Intravenous LD50 of the mice [3]: Intravenous LD50 of the mice: 15 mg/kg
- 30% ST, LDG/PCG ([4]; 30% survival time, low dose group (intratumoral) to positive control group (intravenous)): 200% (18/9 = 2)
- Average Tumor Volume V3 ([4]; High dosage (intratumoral, 55 mg/kg), 3 days after first injection): 268.5 mm^3
- Average Tumor Volume V6 ([4]; High dosage (intratumoral, 55 mg/kg), 6 days after first injection): 364.2 mm^3
- HV6/NV6, tumor volume relative to negative control ([4]; High dosage (intratumoral, 55 mg/kg), 6 days after injection): HV6/NV6 = 90.2%
- Average Tumor Volume V9 ([4]; High dosage (intratumoral, 55 mg/kg), 9 days after first injection): 472.5 mm^3
- Average Tumor Volume V11 ([4]; High dosage (intratumoral, 55 mg/kg), 11 days after first injection): 384.0 mm^3
- Average Tumor Volume V12 ([4]; High dosage (intratumoral, 55 mg/kg), 12 days after first injection): 276.3 mm^3
- HV12/NV, tumor volume relative to negative control ([4]; High dosage (intratumoral, 55 mg/kg), 12 days after injection): HV12/NV = 38.0%
- Average Tumor Volume V0 ([4]; High dosage (intratumoral, 55 mg/kg), before injection): 174.4 mm^3
- Survival of group after drug administration (mice alive) ([4]; High dosage intratumoral, Day 6): 11
- Survival of group after drug administration (mice alive) ([4]; High dosage intratumoral, Day 9): 11
- Survival of group after drug administration (mice alive) ([4]; High dosage intratumoral, Day 11): 11
- Survival of group after drug administration (mice alive) ([4]; High dosage intratumoral, Day 12): 2
- Survival of group after drug administration (mice alive) ([4]; High dosage intratumoral, Day 15): 0
- Survival of group after drug administration (mice alive) ([4]; IV. group, Day 6): 11
- Survival of group after drug administration (mice alive) ([4]; IV. group, Day 9): 9
- Survival of group after drug administration (mice alive) ([4]; IV. group, Day 11): 2
- Survival of group after drug administration (mice alive) ([4]; IV. group, Day 12): 0
- Survival of group after drug administration (mice alive) ([4]; Low dosage intratumoral, Day 6): 11
- Survival of group after drug administration (mice alive) ([4]; Low dosage intratumoral, Day 9): 11
- Survival of group after drug administration (mice alive) ([4]; Low dosage intratumoral, Day 11): 11
- Survival of group after drug administration (mice alive) ([4]; Low dosage intratumoral, Day 12): 11
- Survival of group after drug administration (mice alive) ([4]; Low dosage intratumoral, Day 15): 6
- Survival of group after drug administration (mice alive) ([4]; Low dosage intratumoral, Day 18): 4
- Survival of group after drug administration (mice alive) ([4]; Low dosage intratumoral, Day 19): 3
- Survival of group after drug administration (mice alive) ([4]; Low dosage intratumoral, Day 20): 3
- MST ([4]; intravenous group (positive control)): 9 days
- outcome of local intratumor injection, in words ([4]; low dosage group): superior to the intravenous injection and the negative control group
- mice surviving ([4]; low dosage group (11 mice), 20 days after injection): three
- mice still alive ([4]; low dosage group (11 mice), 21 days after first injection): three
- MST ([4]; low dosage group, intratumoral injection): 15 days
- MST, HDG/PCG ([4]; median survival time, high dose group (intratumoral) to positive control group (intravenous)): 122% (11/9 = 1.22)
- LV12/NV (tumor volume, low dose group to negative control group) ([4]; twelve (12) days after injection, intratumoral injection, low dose group): 49.3%

Compound: CC[C@@]1(O)C(=O)OCc2c1cc1n(c2=O)Cc2cc3cc(O)ccc3nc2-1 [Hydroxycamptothecine]
- solubility (physchem): < 1000 µg/mL
- solubility [2, 5]: < 1000 µg/mL
- solubility [2, 6]: ~71400 µg/mL (≈ 196 mM)
- solubility [2, 12]: < 10000 µg/mL
- solubility ([2]; PEG-300, 90 °C, organic solvent or mixture): > 10000 µg/mL
- solubility [2, 9]: < 1000 µg/mL
- solubility [2, 10]: < 1000 µg/mL

The remaining lines, values ahead:

- solubility (physchem): 118000 to 126000 µg/mL (≈ 147 to 156 mM)
- solubility [2, 5]: < 10000 µg/mL
- solubility ([2]; Medium Chain Triglycerides, 105 °C, oil or lipid): 30000 to 35000 µg/mL (≈ 37.1 to 43.3 mM)
- solubility [2, 6]: > 50000 µg/mL
- solubility [2, 7]: < 10000 µg/mL
- solubility [2, 8]: > 40000 µg/mL
- solubility [2, 9]: < 40000 µg/mL
- solubility ([2]; Tween-80, 120 °C, organic solvent or mixture): > 40000 µg/mL
- solubility [2, 10]: < 1000 µg/mL
- solubility [2, 11]: < 10000 µg/mL
- solubility ([2]; soybean oil, 140 °C, oil or lipid): 12500 to 15000 µg/mL (≈ 15.5 to 18.6 mM)
Compound: CC(=O)O[C@@]12CO[C@@H]1C[C@H](O)[C@@]1(C)C(=O)[C@H](O)C3=C(C)[C@@H](OC(=O)[C@H](O)[C@@H](NC(=O)OC(C)(C)C)c4ccccc4)C[C@@](O)([C@@H](OC(=O)c4ccccc4)[C@H]21)C3(C)C [Docetaxel]

- solubility (physchem): < 130 µg/mL
- solubility [2, 5]: < 200 µg/mL
- solubility ([2]; Medium Chain Triglycerides, 200 °C, oil or lipid): < 200 µg/mL
- solubility [2, 6]: > 105000 µg/mL
- solubility [2, 12]: < 10000 µg/mL
- solubility ([2]; PEG-300, 140 °C, organic solvent or mixture): > 50000 µg/mL
- solubility [2, 9]: < 1700 µg/mL
- solubility [2, 10]: < 1000 µg/mL
Compound: COc1cc([C@@H]2c3cc4c(cc3[C@@H](O[C@@H]3O[C@@H]5CO[C@@H](c6cccs6)O[C@H]5[C@H](O)[C@H]3O)[C@H]3COC(=O)[C@H]23)OCO4)cc(OC)c1O [Teniposide]

- Kinematic viscosity measurement [1]: 908.8 mm^2/s
Compound: OCC(O)CO [Glycerol]
